The values that follow come from patent publication US5691366A, “Nitro compounds, process for preparation thereof and use thereof” (Fujisawa Pharmaceutical Co., Ltd., priority 1991, dated 1997).

Read-outs that look alike come from different tables or passages of the source.

Experiment [1] deals with human platelet aggregation. The experiment is described as follows: Inhibition of human platelet aggregation (anti-platelet aggregation activity). In kind it is cell-based. The settings on record: human PRP, concentration required to inhibit aggregation by 50%, read-out: ED50 (the source's name). As for the experimental part:
Inhibitory activity of the nitro compounds of this invention against human platelet aggregation was measured according to the method described below.
Blood was collected from human volunteers. The blood was prevented from coagulation with 1 volume of 3.8% sodium citrate to 9 volumes of blood. Platelet rich plasma (PRP) was prepared by centrifugation of the blood at 1300 rpm for 10 min. at 10° C. The PRP was diluted with platelet poor plasma obtained by further centrifugation of the blood at 3000 rpm for 10 min. The platelet counts in the PRP used for aggregation studies were about 4.0×10^5 platelets/mm^3. Aggregation studies were performed turbidimetrically using NKK HEMATRACER 1. To 225 μl of PRP 25 μl of the test compounds was added and preincubated for 2 min. After preincubation 5 μl of aggregating agents were added to the mixture. Collagen and ADP were used as aggregating agents at the concentrations of 0.5 μg/ml and 2.5 μM, respectively. Activities of the test compounds were expressed as ED50 values i.e. concentrations required to inhibit the platelet aggregation responses by 50%.

Experiment [2] concerns thoracic aorta from male Sprague-Dawley rats. The experiment is described as follows: Vasodilating activity in vitro (relaxation of norepinephrine-contracted aortic strips). The settings on record: rat aorta helical strips contracted by 3.2×10^-8 g/ml norepinephrine, 37° C. Also noted: species or system rat (male Sprague-Dawley). As for the experimental part: The thoracic aorta from male Sprague-Dawley rats, aged 9-11 weeks, were removed and cut into helical strips after removal of excess fat and connective tissues. The strips were mounted vertically in organ baths containing 25 ml Tyrode solution and isometric tension was measured. The tissue bath solution was maintained at 37° C. and bubbled with a 95% O2 and 5% CO2 gas mixture. After the resting tension was adjusted to 0.5 g, the strips were contracted by 3.2×10^-8 g/ml of norepinephrine (NE). The test compound dissolved in ethanol, polyethylene glycol and distilled water (1:1:2) were added to the organ bath cumulatively.
Then, relaxative activity of test compound was expressed as IC50 value i.e. concentration required to inhibit the contraction response by 50%.

Experiment [3] concerns Mean Arterial Blood Pressure in Anesthetized Rats. The experiment is described as follows: Effect on mean arterial blood pressure in anesthetized rats (intravenous). The settings on record: for inhibition in vivo at 0.032 mg/kg / inhibition in vivo at 0.1 mg/kg / inhibition in vivo at 0.32 mg/kg: Rattus norvegicus, iv, maximal % decrease of mean blood pressure, read-out: Hypotensive effect R max; for Hypotensive effect T 1/2: i.v., time to recover to half of maximal decrease. In kind it is in vivo, rat (male Sprague-Dawley). The protocol: Male Sprague-Dawley rats, aged 9-12 weeks, were anesthetized with urethane (1.4 g/kg i.p.). A polyethylene cannula filled with heparin solution was inserted into the femoral artery of the rats to measure mean blood pressure. Mean blood pressure was measured with a pressure transducer and recorded on a polygraph. The test compound dissolved in ethanol, polyethylene glycol and distilled water (1:1:2), were administered intraveneously in a volume of 0.25 ml/kg. Intravenous hypothypotensive effects of each compound were expressed as the maximal decrease (R max) and the half time (T 1/2). Briefly, R max was expressed as maximal % change compared to mean blood pressure prior to the administration of compound. T 1/2 was expressed as a time during which the hypotensive effect recovered to half of the maximal decrease.

The test system of experiment [4] is Mean Arterial Blood Pressure in Conscious Rats. The experiment is described as follows: Effect on mean arterial blood pressure in conscious rats (oral). It is filed as in vivo, rat (male Sprague-Dawley). The settings on record: for Hypotensive effect Dur.: time to recover to 5% of maximal decrease; for Hypotensive effect T 1/2: time to recover to half of maximal decrease. As for the experimental part:
Male Sprague-Dawley rats, aged 9-11 weeks, were anesthetized with ether and a polyethylene cannula filled with heparin solution was inserted into the femoral artery of the rats to measure mean blood pressure. Mean blood pressure was measured with a pressure transducer and recorded on a polygraph. Two hours after operation, the drug suspended in 0.5% methyl cellulose was administered orally in a volume of 5 ml/kg. Oral hypotensive effects of each compound were expressed as the maximal decrease (R max), the half time (T 1/2) and the duration (Dur.). Briefly, R max was expressed as maximal % change compared to mean blood pressure prior to the administration of compound. T 1/2 was expressed as a time during which the hypotensive effect recovered to half of the maximal decrease. Duration was expressed as a time during which the hypotensive effect recovered to 5% of the maximal decrease.

The mark [5] stands for this setting: Rattus norvegicus, po, 10 mg/kg, maximal % decrease of mean blood pressure, read-out: Hypotensive effect R max.

As for `CCC(=CC(COC(N)=O)=NO)C(C)[N+](=O)[O-]` (single isomer, unassigned) [Example 2 A, 4-Ethyl-2-hydroxyimino-5-nitro-3-hexen-1-yl carbamate], the IC50 is 4.6 µM in experiment [1] (Homo sapiens, Platelet, Inducer: Collagen 0.5 μg/ml) and 8.6 µM in experiment [1] (Inducer: ADP 2.5 μM).
Compound `CCC(=CC(CN1C(=O)c2ccccc2C1=O)=NO)C(C)[N+](=O)[O-]` (single isomer, unassigned) [Example 4 B, N-(4-Ethyl-2-hydroxyimino-5-nitro-3-hexen-1-yl)-phthalimide] showed an IC50 in experiment [2] of 1.8 µM.
Compound `CCC(=CC(CSc1nc2ccccc2s1)=NO)C(C)[N+](=O)[O-]` (single isomer, unassigned) [Example 14 B, 2-(4-Ethyl-2-hydroxyimino-5-nitro-3-hexen-1-yl)thio-benzothiazole] registered an IC50 in experiment [2] (Rattus norvegicus) of 0.11 µM. Moreover, the inhibition in vivo at 0.032 mg/kg in experiment [3] (0.032 mg/kg) was determined as 4.7%. For the same compound, in experiment [3] (0.1 mg/kg), the inhibition in vivo at 0.1 mg/kg was determined as 33.9%.
In turn, `CCC(=CC(COC(=O)c1cccnc1)=NO)C(C)[N+](=O)[O-]` (single isomer, unassigned) [Example 1 A, 4-ethyl-2-hydroxyimino-5-nitro-3-hexen-1-yl 3-pyridinecarboxylate] displayed an IC50 in experiment [2] (Rattus norvegicus) of 16 µM. Besides, the inhibition in vivo at 0.1 mg/kg in experiment [3] (0.1 mg/kg) was 21.7%. The inhibition in vivo at 0.32 mg/kg in experiment [3] (0.32 mg/kg) is 37%.
Regarding `CCC(=CC(CSc1nnnn1C)=NO)C(C)[N+](=O)[O-]` (single isomer, unassigned) [Example 12 B, 1-Methyl-5-(4-ethyl-2-hydroxyimino-5-nitro-3-hexen-1-yl)thiotetrazole], the IC50 stood at 5 µM in experiment [2] and 1.7 µM in experiment [1] (Inducer: ADP 2.5 μM).
`CCC(=CC(CNS(=O)(=O)N(C)C)=NO)C(C)[N+](=O)[O-]` (single isomer, unassigned) [Example 7 A, N,N-Dimethyl-N'-(4-ethyl-2-hydroxyimino-5-nitro-3-hexen-1-yl)sulfamide] yielded an IC50 in experiment [2] (Rattus norvegicus) of 10.7 µM. In experiment [3] (0.1 mg/kg), the inhibition in vivo at 0.1 mg/kg worked out at 31.7% and the “Hypotensive effect T 1/2” value was found to be 7.6 min. Also, in experiment [3] (0.32 mg/kg), the inhibition in vivo at 0.32 mg/kg was found to be 42.1% and the “Hypotensive effect T 1/2” value came to 5.1 min.
As for `O=C(NCC(C=C1CCCCC1[N+](=O)[O-])=NO)c1cccnc1` (stereo not shown) [Example 21, N-[2-Hydroxyimino-3-(2-nitrocyclohexylidene)propyl]-3-pyridinecarboxamide], the “Hypotensive effect Dur.” value in experiment [4] (10 mg/kg) is 67.7 min; in experiment [4] (32 mg/kg), greater than 300 min. Besides, the entries for the “Hypotensive effect T 1/2” value in experiment [4] (10 mg/kg), in experiment [4] (32 mg/kg) and in experiment [3] (0.32 mg/kg) were 34.1 min, 88.1 min and 13.1 min, respectively. The inhibition in vivo at 10 mg/kg in experiment [4] (setting [5]) amounted to 34.3%. The inhibition in vivo at 32 mg/kg in experiment [4] (Rattus norvegicus, po, 32 mg/kg, maximal % decrease of mean blood pressure, read-out: Hypotensive effect R max) was 34.3%. Besides, the inhibition in vivo at 0.32 mg/kg in experiment [3] (0.32 mg/kg) is 26.5%.
On to `CCC(=CC(CNC(C)=O)=NO)C(CC)[N+](=O)[O-]` (stereo not shown) [Example 24, 1Acetylamino-4-ethyl-2-hydroxyimino-5-nitro-3-heptene], for which, in experiment [4] (10 mg/kg), the “Hypotensive effect T 1/2” value amounted to 16.6 min. Besides, the inhibition in vivo at 10 mg/kg in experiment [4] (setting [5]) came to 40.7%. Moreover, in experiment [3] (0.32 mg/kg), the inhibition in vivo at 0.32 mg/kg was 31.8% and the “Hypotensive effect T 1/2” value was determined as 13.6 min.
`CCC(=CC(CN1C(=O)c2ccccc2C1=O)=NO)C(C)[N+](=O)[O-]` (single isomer, unassigned) [Example 4 A, N-(4-Ethyl-2-hydroxyimino-5-nitro-3-hexen-1-yl)-phthalimide] yielded an IC50 in experiment [2] (Rattus norvegicus) of 1.2 µM. For the same compound, in experiment [3] (0.1 mg/kg), the inhibition in vivo at 0.1 mg/kg is 24.6% and the “Hypotensive effect T 1/2” value was 6.7 min. Besides, in experiment [3] (0.32 mg/kg), the inhibition in vivo at 0.32 mg/kg is 40.8% and the “Hypotensive effect T 1/2” value was 5.1 min.
In experiment [2], `CCC(=CC(CNS(=O)(=O)N(C)C)=NO)C(C)[N+](=O)[O-]` (single isomer, unassigned) [Example 7 B, N,N-Dimethyl-N'-(4-ethyl-2-hydroxyimino-5-nitro-3-hexen-1-yl)sulfamide] displayed an IC50 of 19.4 µM. For the same compound, the “Hypotensive effect T 1/2” value in experiment [3] (0.1 mg/kg) came out at 6.6 min.
Take `CCNC(=O)OCC(C=C(CC)C(C)[N+](=O)[O-])=NO` (single isomer, unassigned) [Example 3 A, 4-Ethyl-2-hydroxyimino-5-nitro-3-hexen-1-yl ethylcarbamate]: in experiment [2] (Rattus norvegicus), the IC50 was determined as 18.8 µM. For the same compound, in experiment [3] (0.032 mg/kg), the inhibition in vivo at 0.032 mg/kg is 12.6% and the “Hypotensive effect T 1/2” value worked out at 4.8 min. Further, in experiment [3] (0.1 mg/kg), the inhibition in vivo at 0.1 mg/kg was 29.3% and the “Hypotensive effect T 1/2” value is 7.2 min.
Consider `CCC(=CC(CNC(=O)c1cccnc1SC)=NO)C(C)[N+](=O)[O-]` (single isomer, unassigned) [Example 31 A, N-(4-Ethyl-2-hydroxyimino-5-nitro-3-hexen-1-yl)-2-methylthio-3-pyridinecarboxamide], for which the “Hypotensive effect T 1/2” value in experiment [4] (10 mg/kg) was 10.4 min. Further, in experiment [4] (setting [5]), the inhibition in vivo at 10 mg/kg amounted to 14.9%. Besides, the inhibition in vivo at 0.32 mg/kg in experiment [3] (0.32 mg/kg) was 24.3%.
As for `CCC(=CC(CNC(=O)c1ccc(C)nc1)=NO)C(C)[N+](=O)[O-]` (stereo not shown) [Example 35, N-(4-Ethyl-2-hydroxyimino-5-nitro-3-hexen-1-yl)-6-methyl-3-pyridinecarboxamide], the “Hypotensive effect T 1/2” value in experiment [4] (10 mg/kg) came out at 24.1 min; in experiment [3] (0.32 mg/kg), 13.7 min. Also, the inhibition in vivo at 10 mg/kg in experiment [4] (setting [5]) stood at 31.1%. Moreover, the inhibition in vivo at 0.32 mg/kg in experiment [3] (0.32 mg/kg) was determined as 41.7%.
In experiment [2], `CCC(=CC(COC(=O)c1cccnc1)=NO)C(C)[N+](=O)[O-]` (single isomer, unassigned) [Example 1 B, 4-ethyl-2-hydroxyimino-5-nitro-3-hexen-1-yl 3-pyridinecarboxylate] came in with an IC50 of 10 µM. For the same compound, in experiment [3] (0.032 mg/kg), the inhibition in vivo at 0.032 mg/kg amounted to 11.8%.
Consider `CCC(=CC(CNC(=O)c1cccnc1O)=NO)C(C)[N+](=O)[O-]` (single isomer, unassigned) [Example 33 A, N-(4-Ethyl-2-hydroxyimino-5-nitro-3-hexen-1-yl)-2-hydroxy-3-pyridinecarboxamide], for which the “Hypotensive effect T 1/2” value in experiment [4] (10 mg/kg) stood at 18.3 min. For the same compound, the inhibition in vivo at 10 mg/kg in experiment [4] (setting [5]) stood at 23.1%. Also, in experiment [3] (0.32 mg/kg), the inhibition in vivo at 0.32 mg/kg turned out to be 20.9% and the “Hypotensive effect T 1/2” value was determined as 11.9 min.
For the compound `CCC(=CC(CNC(=O)c1cccnc1C)=NO)C(C)[N+](=O)[O-]` (single isomer, unassigned) [Example 30 B, N-(4-Ethyl-2-hydroxyimino-5-nitro-3-hexen-1-yl)-2-methyl-3-pyridinecarboxamide], the “Hypotensive effect T 1/2” value in experiment [4] (10 mg/kg) worked out at 20.9 min; in experiment [3] (0.32 mg/kg) it was 13.0 min.
`CCC(=CC(CNC(C)=O)=NO)C(C)[N+](=O)[O-]` (single isomer, unassigned) [Example 5 B, 1-Acetylamino-4-ethyl-2-hydroxyimino-5-nitro-3-hexene] had an IC50 in experiment [2] of 88.7 µM. In addition, in experiment [3] (0.1 mg/kg), the inhibition in vivo at 0.1 mg/kg is 34.3% and the “Hypotensive effect T 1/2” value turned out to be 6.2 min.
